In brackets after ≈: the same amount, converted by molar mass.
Conditions: not given

Row | Compound | solubility [mM]
1 | NC(=O)NC1NC(=O)NC1=O (stereo not drawn) | 33.3 (≈ 5260 µg/mL)
2 | CC(C)(C)NCC(O)c1ccc(O)c(CO)c1 (stereo not drawn) | 59.3 (≈ 14200 µg/mL)
3 | O=C1OC(c2ccc(O)cc2)(c2ccc(O)cc2)c2ccccc21 | 1.26 (≈ 400 µg/mL)

Same assay, conditions: 20 °C

Row | Compound | solubility [mM]
4 | O=[N+]([O-])c1ccc(Cl)c(Cl)c1 | 0.63 (≈ 121 µg/mL)
5 | CCCBr | 19.9 (≈ 2450 µg/mL)
6 | O=[N+]([O-])c1cccc(Cl)c1 | 1.73 (≈ 273 µg/mL)
7 | S=C=S | 15.5 (≈ 1180 µg/mL)
8 | CCOP(=S)(OCC)SCC(=O)NC(C)C | 8.76 (≈ 2500 µg/mL)
9 | CC1(C)C(=O)N(Cl)C(=O)N1Cl | 2.54 (≈ 500 µg/mL)
10 | O=[N+]([O-])c1ccc(Cl)cc1 | 1.43 (≈ 225 µg/mL)
11 | CCCCC(C)=O | 175 (≈ 17500 µg/mL)
12 | Nc1nc(N)nc(N)n1 | 25.6 (≈ 3230 µg/mL)
13 | CCOCCOC(C)=O | 1870 (≈ 247000 µg/mL)
14 | O=[N+]([O-])c1cccc(Cl)c1Cl | 0.325 (≈ 62.4 µg/mL)
15 | CC(=O)OC(C)=O | 1180 (≈ 120000 µg/mL)
16 | c1ccc(Nc2ccccc2)cc1 | 0.313 (≈ 53 µg/mL)
17 | BrCCCBr | 8.42 (≈ 1700 µg/mL)
18 | C#C | 46.1 (≈ 1200 µg/mL)
19 | Cc1cc(O)cc(C)c1Cl | 1.6 (≈ 250 µg/mL)
20 | CC(C)Br | 24.6 (≈ 3020 µg/mL)
21 | CCNc1nc(NC(C)(C)C)nc(SC)n1 | 0.104 (≈ 25 µg/mL)
22 | CNC(=O)Oc1cc(C(C)(C)C)cc(C(C)(C)C)c1 | 0.057 (≈ 15 µg/mL)
23 | C#CC(C)OC(=O)Nc1cccc(Cl)c1 (stereo not drawn) | 2.41 (≈ 540 µg/mL)
24 | CCCCCCC(C)=O | 7.02 (≈ 900 µg/mL)

Same assay, conditions: 22 °C

Row | Compound | solubility [mM]
25 | N[C@@H](Cc1ccccc1)C(=O)O (racemic) | 134 (≈ 22100 µg/mL)
26 | O=[N+]([O-])C(Br)(CO)CO | 1250 (≈ 250000 µg/mL)

Same assay, conditions: 23 °C

Row | Compound | solubility [mM]
27 | CC(Oc1cc(Cl)c(Cl)cc1Cl)C(=O)O (stereo not drawn) | 0.341 (≈ 92 µg/mL)

Same assay, conditions: 24 °C

Row | Compound | solubility [mM]
28 | CC[C@H](C)[C@H](N)C(=O)O (racemic) | 262 (≈ 34400 µg/mL)
29 | Cc1ccc2cc3c(ccc4ccccc43)cc2c1 | 0.000153 (≈ 0.037 µg/mL)
30 | COP(=S)(OC)SCC(=O)N(C)C=O | 10.1 (≈ 2600 µg/mL)
31 | CCOP(=S)(OCC)Oc1nc(Cl)c(Cl)cc1Cl | 0.00319 (≈ 1.12 µg/mL)
32 | CN1CCN(CCCN2c3ccccc3Sc3ccc(Cl)cc32)CC1 | 0.04 (≈ 15 µg/mL)

Same assay, conditions: 25 °C

Row | Compound | solubility [mM]
33 | c1ccc(-c2ccccc2)cc1 | 0.045 (≈ 6.94 µg/mL)
34 | Cc1ccc(O)cc1 | 199 (≈ 21500 µg/mL)
35 | Nc1ccccc1 | 387 (≈ 36000 µg/mL)
36 | CCCCC(=O)O | 384 (≈ 39200 µg/mL)
37 | C[C@]12CC[C@H]3[C@@H](CCC4=CC(=O)CC[C@@H]43)[C@@H]1CC[C@@H]2O | 11.3 (≈ 3090 µg/mL)
38 | Cc1cccc(O)c1 | 210 (≈ 22700 µg/mL)
39 | CCOC(=O)c1ccc(O)cc1 | 4.91 (≈ 816 µg/mL)
40 | CC(C)OC(=O)Nc1ccccc1 | 0.999 (≈ 179 µg/mL)
41 | Clc1ccc(Cl)cc1 | 0.553 (≈ 81.3 µg/mL)
42 | O=C(O)c1cccnc1C(=O)O | 65.8 (≈ 11000 µg/mL)
43 | COc1cc(Cl)c(OC)cc1Cl | 0.0386 (≈ 8 µg/mL)
44 | CCC(C)CC | 0.208 (≈ 17.9 µg/mL)
45 | Clc1ccc(C(c2ccc(Cl)cc2)C(Cl)(Cl)Cl)cc1 | 1.55e-05 (≈ 0.0055 µg/mL)
46 | OC(O)C(Cl)(Cl)Cl | 4790 (≈ 793000 µg/mL)
47 | CC(C)(C)C | 0.46 (≈ 33.2 µg/mL)
48 | CCC1(CCC(C)C)C(=O)NC(=O)NC1=O | 2.67 (≈ 603 µg/mL)
49 | O=C(O)c1ccccc1C(=O)O | 42.1 (≈ 6990 µg/mL)
50 | Nc1ccc2ccccc2c1 | 1.32 (≈ 189 µg/mL)
51 | O=Cc1ccccc1 | 61.9 (≈ 6570 µg/mL)
52 | C1=CCCCC1 | 2.59 (≈ 213 µg/mL)
53 | O=C(Nc1cccc(Cl)c1)OCC#CCCl | 0.0426 (≈ 11 µg/mL)
54 | CCCCCCCO | 14.4 (≈ 1670 µg/mL)

Row | Compound | solubility [mM]
55 | CCCC(C)(COC(N)=O)COC(N)=O | 21.5 (≈ 4700 µg/mL)
56 | O=C(O)c1cccc([N+](=O)[O-])c1 | 21.4 (≈ 3580 µg/mL)
57 | Cn1cnc2c1c(=O)[nH]c(=O)n2C | 1.83 (≈ 330 µg/mL)
58 | C[C@]12CCC(=O)C=C1CC[C@@H]1[C@@H]2CC[C@@]2(C)[C@H]1CC[C@]2(C)O | 0.112 (≈ 33.9 µg/mL)
59 | CCCCCC(=O)O | 88.7 (≈ 10300 µg/mL)
60 | CCNC(=O)CSP(=S)(OC)OC | 34.9 (≈ 8500 µg/mL)
61 | O=Cc1ccco1 | 801 (≈ 77000 µg/mL)
62 | ClC(Cl)=C(c1ccc(Cl)cc1)c1ccc(Cl)cc1 | 0.000126 (≈ 0.04 µg/mL)
63 | CCCCc1ccccc1 | 0.0879 (≈ 11.8 µg/mL)
64 | CC(C)C[C@H](N)C(=O)O | 141 (≈ 18500 µg/mL)
65 | CCCCCCCCCCCCCCCCO | 9.69e-05 (≈ 0.0235 µg/mL)
66 | Oc1ncnc2[nH]ncc12 | 4.18 (≈ 569 µg/mL)
67 | N[C@@H](Cc1c[nH]c2ccccc12)C(=O)O | 65.6 (≈ 13400 µg/mL)
68 | CC[N+](=O)[O-] | 626 (≈ 47000 µg/mL)
69 | CCNc1nc(NC(C)C)nc(SC)n1 | 0.919 (≈ 209 µg/mL)
70 | Cn1c(=O)c2[nH]cnc2n(C)c1=O | 40.9 (≈ 7360 µg/mL)
71 | CC12CCC(CC1=O)C2(C)C (stereo not drawn) | 2.63 (≈ 400 µg/mL)
72 | ClC1(Cl)C2(Cl)C3(Cl)C4(Cl)C(Cl)(Cl)C5(Cl)C3(Cl)C1(Cl)C5(Cl)C24Cl (stereo not drawn) | 0.000156 (≈ 0.085 µg/mL)
73 | Oc1cccc(O)c1O | 4020 (≈ 507000 µg/mL)
74 | CCCCCCCCC=O | 0.675 (≈ 96 µg/mL)
75 | CCN(CC)c1c([N+](=O)[O-])cc(C(F)(F)F)c(N)c1[N+](=O)[O-] | 0.00341 (≈ 1.1 µg/mL)

Same assay, conditions: 30 °C

Row | Compound | solubility [mM]
76 | Nc1ccc(C(=O)O)cc1 | 44.6 (≈ 6110 µg/mL)
77 | CCC1(c2ccccc2)CCC(=O)NC1=O (stereo not drawn) | 4.6 (≈ 999 µg/mL)
78 | CCOC(=O)c1ccc(N)cc1 | 7.93 (≈ 1310 µg/mL)
